Blank lines part the entries; values can stand above or below the molecule they belong to. *1 amine or outer side, *2 acyl side, *3 side chain or, on linkers, in order; H or OH if unused. Where a SMILES comes first, the peptide text is derived from it. The star is where a group is joined. X1 = COc1ccc2c(c1)c(CC(=O)OCCS*)c(C)n2C(=O)c1ccc(Cl)cc1; Pteroyl = Nc1nc2ncc(CNc3ccc(C(=O)*)cc3)nc2c(=O)[nH]1; γGlu = O=C(O)[CH](CCC(=O)[*:2])N[*:1]
How the values were obtained:
[1] = system: folate receptors on white blood cells from dogs; assay: 3H-folic acid binding to white blood cells from dogs; design: species or system dog; conditions: with/without 100-fold excess folic acid, FIG. 4
Method: (§1) All binding experiments were conducted on ice or in a 4° C. cold room unless indicated otherwise. Folate conjugate and ^3H-folic acid binding studies were performed by incubating cells with a 100 nM concentration of the indicated folate dye conjugate for 45 minutes. […] An acidic wash to strip cell-surface bound folate conjugates was performed on indicated samples by washing the cell sample with a 150 mM NaCl solution adjusted to pH 3.5 with acetic acid. All antibody labeling was optimized by titration. Optimal labeling was most often achieved with a 1/1000-1/10,000 dilution of the manufacture's stock antibody solution. After cells were labeled with folate dye conjugates and/or antibodies, the samples were washed twice with PBS to remove non-specific binding. Analysis of folate conjugate binding and/or antibody binding was analyzed by confocal microscopy or by flow cytometry (FCS Calibur, BD, Franklin Lakes, N.J.). After washing ^3H-folic acid samples to remove non-specific binding, cells were dissolved in 0.25M NaOH and radioactivity was counted on a scintillation counter.

[2] = target: T1, folate receptors on white blood cells from mice (Mus musculus, UniProt Q05685); assay: 3H-folic acid binding to white blood cells from mice; conditions: with/without 100-fold excess folic acid, FIG. 4
T1 construct: endogenous in cells; host or cells: mouse white blood cells
Method: as §1

[3] = system: folate receptors on peripheral blood monocytes of dogs; assay: Folate dye conjugate binding to peripheral blood monocytes from dogs, flow cytometry; design: species or system dog; conditions: with/without 100-fold excess folic acid, FIG. 5, FIG. 6
Method: (§2) An 8-10 ml sample of whole blood was collected in EDTA anticoagulant tubes. PBMCs were isolated from the blood samples using Ficoll-Paque Plus (Amersham Biosciences, Piscataway, N.J.) and by following the manufacture's provided protocol. Briefly, the blood sample was diluted 50:50 with a balanced salt solution (described below). 8 mL of Ficoll-Paque Plus was added to a 50 ml conical centrifuge tube. The diluted blood sample (approximately 16-20 ml) was layered on top of the Ficoll gradient. The sample was centrifuged at 400×g for 30 minutes at room temperature. Following centrifugation, the plasma layer (top clear layer) was removed using a pipette leaving the lymphocyte/monocyte layer undisturbed. The hazy cell layer immediately below the plasma layer was removed, being careful to remove the entire cell interface but a minimum amount of the Ficoll layer. […]
(§3) All binding experiments were conducted on ice or in a 4° C. cold room unless indicated otherwise. […] Analysis of folate conjugate binding and/or antibody binding was analyzed by confocal microscopy or by flow cytometry (FCS Calibur, BD, Franklin Lakes, N.J.). After washing ^3H-folic acid samples to remove non-specific binding, cells were dissolved in 0.25M NaOH and radioactivity was counted on a scintillation counter.

[4] = system: folate receptors on peripheral blood monocytes of horses; assay: Folate-FITC binding to peripheral blood monocytes from horses, flow cytometry; design: species or system horse; conditions: with/without 100-fold excess folic acid, FIG. 5
Method: as §2, §3

[5] = target: T2, folate receptors on human peripheral blood monocytes (Homo sapiens, UniProt P14207); assay: Folate dye conjugate binding to human peripheral blood monocytes, flow cytometry; conditions: for percentage of human peripheral blood monocytes bound: CD11b+ monocytes, FIG. 2; for binding to human peripheral blood monocytes: FIG. 1
T2 construct: endogenous in cells; host or cells: human peripheral blood monocytes (PBMC isolated by Ficoll-Paque)
Method: An 8-10 ml sample of whole blood was collected in EDTA anticoagulant tubes. PBMCs were isolated from the blood samples using Ficoll-Paque Plus (Amersham Biosciences, Piscataway, N.J.) and by following the manufacture's provided protocol. Briefly, the blood sample was diluted 50:50 with a balanced salt solution (described below). 8 mL of Ficoll-Paque Plus was added to a 50 ml conical centrifuge tube. The diluted blood sample (approximately 16-20 ml) was layered on top of the Ficoll gradient. The sample was centrifuged at 400×g for 30 minutes at room temperature. Following centrifugation, the plasma layer (top clear layer) was removed using a pipette leaving the lymphocyte/monocyte layer undisturbed. The hazy cell layer immediately below the plasma layer was removed, being careful to remove the entire cell interface but a minimum amount of the Ficoll layer. The isolated cells were put into a sterile 50 ml conical centrifuge tube and diluted 3-fold (vol/vol) using the balanced salt solution. The resulting cell solution was gently mixed and centrifuged at 100×g for 10 minutes at room temperature to pellet the cells. The supernatant was removed and the cells were resuspended in folate deficient RPMI 1640 medium supplemented with 10% heat-inactivated FBS, penicillin (100 IU/ml) and streptomycin (100 μg/ml). Cells were seeded in microcentrifuge tubes or microscopy chambers as dictated by the experiment.
as §1

[6] = system: adjuvant-induced arthritis; assay: Adjuvant-induced arthritis in rats, paw swelling; format: in vivo, rat
Method: Arthritis was induced in 150-200 g female Lewis rats (Harlan, Indianapolis, Ind.), n=2-5/dose group. Briefly, 0.5 mg of heat-killed […] butericum, suspended in mineral oil (5 mg/ml), was injected on day 0 into the left hind foot of rats following anesthesia with ketamine and xylazine. All treated animals developed arthritis, as evidenced by dramatic swelling in the injected paw, progressive swelling in all noninjected limbs due to the systemic progression of arthritis, and radiographic analysis of affected limbs. All rats were maintained on a folate-deficient diet (DYETS, Inc., Bethlehem, Pa.) for 3 weeks prior to administration of therapeutic agents in order to lower serum folate levels to physiologically relevant concentrations. Control rats were also maintained on a folate-deficient diet but were not induced to develop arthritis.
The protocol described in Example 32 for arthritis induction was followed. The efficacy of folate-flumethasone (50 nmoles/kg/day) and folate-indomethacin (100 or 250 nmoles/kg/day) against adjuvant-induced arthritis in rats was investigated. Rats were injected intraperitoneally with either saline (control rats) or folate-flumethasone (50 nmoles/kg/day) or folate-indomethacin (100 or 250 nmoles/kg/day) starting at day 4. The sudden increase in swelling of the adjuvant-injected foot is due to influx of neutrophils which have no folate receptors. […]

[7] = absence of unlabeled folic acid
[8] = presence of a 100-fold excess of unlabeled folic acid

T2 sequence (P14207 17-230): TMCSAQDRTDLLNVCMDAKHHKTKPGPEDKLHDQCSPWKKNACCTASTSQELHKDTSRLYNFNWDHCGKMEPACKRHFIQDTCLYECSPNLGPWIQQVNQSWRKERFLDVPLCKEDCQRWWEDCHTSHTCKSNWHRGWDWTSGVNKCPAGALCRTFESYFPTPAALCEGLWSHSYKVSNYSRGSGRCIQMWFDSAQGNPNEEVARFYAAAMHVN
T1 sequence (Q05685 21-227): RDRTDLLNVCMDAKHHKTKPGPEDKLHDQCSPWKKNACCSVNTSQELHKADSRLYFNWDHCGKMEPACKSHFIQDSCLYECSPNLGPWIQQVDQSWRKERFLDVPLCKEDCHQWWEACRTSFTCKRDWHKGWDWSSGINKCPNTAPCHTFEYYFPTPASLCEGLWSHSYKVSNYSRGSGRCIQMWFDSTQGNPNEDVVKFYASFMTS

folate receptor detection on white blood cells [2]: detectable
SMILES: Nc1nc2ncc(CNc3ccc(C(=O)N[C@@H](CCC(=O)O)C(=O)O)cc3)nc2c(=O)[nH]1 [^3H-Folic acid]
folate receptor detection on white blood cells [1]: detectable

SMILES: Nc1nc2ncc(CNc3ccc(C(=O)NC(CCC(=O)NCCNC(=S)Nc4ccc(C(=O)O)c(-c5c6ccc(=O)cc-6oc6cc(O)ccc56)c4)C(=O)O)cc3)nc2c(=O)[nH]1 (stereo not drawn) [folate-FITC]
folate receptor detection on peripheral blood monocytes [3]: detectable
folate receptor detection on peripheral blood monocytes [4]: detectable
percentage of human peripheral blood monocytes bound [5, 7]: 45.9%
percentage of human peripheral blood monocytes bound [5, 8]: 2%
binding to human peripheral blood monocytes [5, 7]: bound
folate receptor detection on human peripheral blood monocytes ([5]; healthy humans and patients with rheumatoid arthritis, osteoarthritis, fibromyalgia, FIG. 8): detectable
folate receptor detection on human peripheral blood monocytes ([5]; patients with rheumatoid arthritis over the course of therapy, FIG. 10): detectable
binding to human peripheral blood monocytes [5, 8]: competed

SMILES: COc1ccc2c(c1)c(CC(=O)OCCSSCC(NC(=O)C(CC(=O)O)NC(=O)C(CC(=O)O)NC(=O)C(CCCNC(=N)N)NC(=O)C(CC(=O)O)NC(=O)CCC(NC(=O)c1ccc(NCc3cnc4nc(N)[nH]c(=O)c4n3)cc1)C(=O)O)C(=O)O)c(C)n2C(=O)c1ccc(Cl)cc1 (stereo not drawn) [folate-indomethacin] ({Pteroyl-γGlu}-DRDDC(X1)-OH; configuration not given here)
effect on paw swelling (left foot dimensions) after about 7 days ([6]; 100 or 250 nmoles/kg/day intraperitoneally starting at day 4, FIG. 9): potent therapeutic effects

SMILES: CC1CC2C3CC(F)C4=CC(=O)C=CC4(C)C3(F)C(O)CC2(C)C1(O)C(=O)COC(=O)OCCSSCC(NC(=O)CCC(NC(=O)c1ccc(NCc2cnc3nc(N)[nH]c(=O)c3n2)cc1)C(=O)O)C(=O)O (stereo not drawn) [folate-flumethasone]
effect on paw swelling (left foot dimensions) after about 7 days ([6]; 50 nmoles/kg/day intraperitoneally starting at day 4, FIG. 9): potent therapeutic effects

Source: US9731035B2, “Method of imaging osteoarthritis using a folate conjugate” (Purdue Research Foundation, priority 2005, dated 2017)
